From the supplement of paper PMC8253809

System: DIPGX37 (H3.3 K27M diffuse intrinsic pontine glioma line)
Assay: growth inhibition relative to DMSO (0) and positive control (1) (fraction); higher = more growth inhibition
Protocol: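 Paxalisib (GDC0084) x mirdametinib (PD0325901) dose matrix on pHGG cell lines and astrocyte controls, 7 days, adherent 384-well. CellTiter-Glo RLU was normalised (no log2) to fractional activity between DMSO (0) and the positive control (1). Each combination was tested in two plate orientations.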

O=C(NOC[C@H](O)CO)c1ccc(F)c(F)c1Nc1ccc(I)cc1F + CC1(C)OCCn2c1nc1c(N3CCOCC3)nc(-c3cnc(N)nc3)nc12 [GDC0084]
growth inhibition
Details | compound 1 concentration 0.009766 µM | compound 1 concentration 0.01953 µM | compound 1 concentration 0.03906 µM | compound 1 concentration 0.07812 µM | compound 1 concentration 0.15625 µM | compound 1 concentration 0.3125 µM | compound 1 concentration 0.625 µM | compound 1 concentration 1.25 µM | compound 1 concentration 5 µM | compound 1 concentration 20 µM
compound 2 concentration 0.03906 µM | -0.0653 | -0.109 | 0.00889 | 0.0388 | 0.199 | 0.341 | 0.484 | 0.642 | 0.948 | 0.988
compound 2 concentration 0.07812 µM | 0.157 | 0.133 | 0.163 | 0.275 | 0.352 | 0.487 | 0.599 | 0.725 | 0.959 | 0.993
compound 2 concentration 0.15625 µM | 0.264 | 0.281 | 0.316 | 0.412 | 0.485 | 0.618 | 0.728 | 0.829 | 0.983 | 0.997
compound 2 concentration 0.3125 µM | 0.446 | 0.454 | 0.5 | 0.586 | 0.657 | 0.767 | 0.859 | 0.926 | 0.997 | 1
compound 2 concentration 0.625 µM | 0.589 | 0.585 | 0.62 | 0.71 | 0.777 | 0.871 | 0.937 | 0.97 | 1 | 1
compound 2 concentration 1.25 µM | 0.75 | 0.791 | 0.815 | 0.864 | 0.908 | 0.951 | 0.976 | 0.996 | 1 | 1
compound 2 concentration 5 µM | 0.965 | 0.975 | 0.988 | 0.995 | 0.999 | 1 | 1 | 1 | 1 | 1
compound 2 concentration 20 µM | 0.996 | 0.998 | 0.998 | 0.996 | 0.998 | 0.997 | 0.997 | 0.997 | 0.998 | 1
